Results from PubChem BioAssay (NCI).
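A five-concentration, 48-hour dose response in 96-well plates underlies each endpoint, interpolated linearly between surrounding concentrations. GI50 is the concentration that inhibits growth by half. TGI: concentration producing complete growth inhibition.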

Tests used:
Experiment in all cases: NCI anticancer screen, dose series, 48 h; in the data active = GI50 below about 0.43 µM; inactive = the rest
[1] = system: 786-0 renal
[2] = system: A498 renal
[3] = system: A549 NSCLC
[4] = system: ACHN renal
[5] = system: BT-549 breast
[6] = system: CAKI-1 renal
[7] = system: CCRF-CEM leukemia
[8] = system: COLO 205 colon
[9] = system: DU-145 prostate
[10] = system: EKVX NSCLC
[11] = system: HCC-2998 colon
[12] = system: HCT-116 colon
[13] = system: HCT-15 colon
[14] = system: HL-60(TB) leukemia
[15] = system: HOP-62 NSCLC
[16] = system: HOP-92 NSCLC
[17] = system: HS 578T breast
[18] = system: HT29 colon
[19] = system: IGROV1 ovarian
[20] = system: K-562 leukemia
[21] = system: KM12 colon
[22] = system: LOX IMVI melanoma
[23] = system: M14 melanoma
[24] = system: MALME-3M melanoma
[25] = system: MCF7 breast
[26] = system: MDA-MB-231 breast
[27] = system: MDA-MB-435
[28] = system: MOLT-4 leukemia
[29] = system: NCI-H226 lung
[30] = system: NCI-H23 lung
[31] = system: NCI-H460 lung
[32] = system: NCI-H522 lung
[33] = system: NCI/ADR-RES ovarian
[34] = system: OVCAR-3 ovarian
[35] = system: OVCAR-4 ovarian
[36] = system: OVCAR-5 ovarian
[37] = system: OVCAR-8 ovarian
[38] = system: PC-3 prostate
[39] = system: RPMI-8226 leukemia
[40] = system: RXF 393 renal
[41] = system: SF-268 CNS
[42] = system: SF-295 CNS
[43] = system: SF-539 CNS
[44] = system: SK-MEL-2 melanoma
[45] = system: SK-MEL-28 melanoma
[46] = system: SK-MEL-5 melanoma
[47] = system: SK-OV-3 ovarian
[48] = system: SN12C renal
[49] = system: SNB-19 CNS
[50] = system: SNB-75 CNS
[51] = system: SW-620 colon
[52] = system: T-47D breast
[53] = system: TK-10 renal
[54] = system: U251 CNS
[55] = system: UACC-257 melanoma
[56] = system: UACC-62 melanoma
[57] = system: UO-31 renal
[58] = system: SR leukemia

N#Cc1ccc(NC(=O)Nc2ccc(Oc3ccc(NC(=O)Nc4ccc(C#N)cc4)cc3)cc2)cc1
83.8 µM: TGI [14]
37.7 µM: TGI [28]
89 µM: TGI [53]
46.3 µM: TGI [47]
62.7 µM: TGI [16]
13.6 µM: TGI [42]
31.6 µM: TGI [52]
7.53 µM: TGI [11]
63.4 µM: TGI [1]
> 100 µM: TGI [3] | TGI [4] | TGI [6] | TGI [7] | TGI [8] | TGI [9] | TGI [10] | TGI [12] | TGI [13] | TGI [17] | TGI [18] | TGI [19] | TGI [20] | TGI [21] | TGI [22] | TGI [23] | TGI [25] | TGI [26] | TGI [27] | TGI [29] | TGI [31] | TGI [33] | TGI [34] | TGI [35] | TGI [36] | TGI [37] | TGI [38] | TGI [40] | TGI [41] | TGI [45] | TGI [46] | TGI [48] | TGI [51] | TGI [55] | TGI [56] | TGI [57]
24.4 µM: TGI [50]
88.7 µM: TGI [49]
61.2 µM: TGI [2]
24.2 µM: TGI [5]
59.4 µM: TGI [43]
56.5 µM: TGI [30]
active: GI50 [42] 0.379 µM
77.8 µM: TGI [24]
inactive: GI50 [1] 10.5 µM | GI50 [2] 15.9 µM | GI50 [3] 17.8 µM | GI50 [4] 18.8 µM | GI50 [5] 3.48 µM | GI50 [6] 20.8 µM | GI50 [7] 22.1 µM | GI50 [8] 24.6 µM | GI50 [9] 31.2 µM | GI50 [10] 10.3 µM | GI50 [11] 0.764 µM | GI50 [12] 4.02 µM | GI50 [13] 18 µM | GI50 [14] 1.17 µM | GI50 [15] 3.06 µM | GI50 [16] 13.3 µM | GI50 [17] 7.49 µM | GI50 [18] 90 µM | GI50 [19] 30.4 µM | GI50 [20] 2.11 µM | GI50 [21] 11.2 µM | GI50 [22] 15.7 µM | GI50 [23] 28.3 µM | GI50 [24] 3.28 µM | GI50 [25] 3.71 µM | GI50 [26] 12.4 µM | GI50 [27] 17.1 µM | GI50 [28] 1.12 µM | GI50 [29] 23.1 µM | GI50 [30] 6.53 µM | GI50 [31] 3.24 µM | GI50 [32] 10.9 µM | GI50 [33] 13 µM | GI50 [34] 19.4 µM | GI50 [35] 5.65 µM | GI50 [36] 26.1 µM | GI50 [37] 14.4 µM | GI50 [38] 25.6 µM | GI50 [39] 0.994 µM | GI50 [40] 15.3 µM | GI50 [41] 10.8 µM | GI50 [43] 17.6 µM | GI50 [44] 22.4 µM | GI50 [45] 79.2 µM | GI50 [46] 20.2 µM | GI50 [47] 11.1 µM | GI50 [48] 25.3 µM | GI50 [49] 20 µM | GI50 [50] 4.14 µM | GI50 [51] 26 µM | GI50 [52] 0.622 µM | GI50 [53] 23.2 µM | GI50 [54] 4.85 µM | GI50 [55] 29.1 µM | GI50 [56] 11.1 µM | GI50 [57] 22.2 µM
20.6 µM: TGI [15]
88.9 µM: TGI [44]
27.8 µM: TGI [54]
95.5 µM: TGI [32]
39.6 µM: TGI [39]

CS(=O)(=O)c1ccc([C@H]2O[C@@H](CO)C[C@]2(O)c2ccc(S(C)(=O)=O)cc2)cc1
inactive: GI50 [1] > 100 µM | GI50 [2] > 100 µM | GI50 [3] > 100 µM | GI50 [4] > 100 µM | GI50 [5] > 100 µM | GI50 [6] > 100 µM | GI50 [7] > 100 µM | GI50 [8] > 100 µM | GI50 [9] > 100 µM | GI50 [10] > 100 µM | GI50 [11] > 100 µM | GI50 [12] > 100 µM | GI50 [13] > 100 µM | GI50 [14] > 100 µM | GI50 [15] > 100 µM | GI50 [16] > 100 µM | GI50 [17] > 100 µM | GI50 [18] > 100 µM | GI50 [19] > 100 µM | GI50 [20] > 100 µM | GI50 [21] > 100 µM | GI50 [22] > 100 µM | GI50 [24] > 100 µM | GI50 [25] > 100 µM | GI50 [26] > 100 µM | GI50 [27] > 100 µM | GI50 [28] > 100 µM | GI50 [29] > 100 µM | GI50 [30] > 100 µM | GI50 [31] > 100 µM | GI50 [32] > 100 µM | GI50 [33] > 100 µM | GI50 [34] > 100 µM | GI50 [35] > 100 µM | GI50 [36] > 100 µM | GI50 [37] > 100 µM | GI50 [38] > 100 µM | GI50 [39] > 100 µM | GI50 [40] > 100 µM | GI50 [41] > 100 µM | GI50 [42] > 100 µM | GI50 [43] > 100 µM | GI50 [45] > 100 µM | GI50 [46] > 100 µM | GI50 [47] > 100 µM | GI50 [48] > 100 µM | GI50 [49] > 100 µM | GI50 [50] > 100 µM | GI50 [58] > 100 µM | GI50 [51] > 100 µM | GI50 [53] > 100 µM | GI50 [54] > 100 µM | GI50 [55] > 100 µM | GI50 [56] > 100 µM | GI50 [57] > 100 µM
> 100 µM: TGI [1] | TGI [2] | TGI [3] | TGI [4] | TGI [5] | TGI [6] | TGI [7] | TGI [8] | TGI [9] | TGI [10] | TGI [11] | TGI [12] | TGI [13] | TGI [14] | TGI [15] | TGI [16] | TGI [17] | TGI [18] | TGI [19] | TGI [20] | TGI [21] | TGI [22] | TGI [24] | TGI [25] | TGI [26] | TGI [27] | TGI [28] | TGI [29] | TGI [30] | TGI [31] | TGI [32] | TGI [33] | TGI [34] | TGI [35] | TGI [36] | TGI [37] | TGI [38] | TGI [39] | TGI [40] | TGI [41] | TGI [42] | TGI [43] | TGI [45] | TGI [46] | TGI [47] | TGI [48] | TGI [49] | TGI [50] | TGI [58] | TGI [51] | TGI [53] | TGI [54] | TGI [55] | TGI [56] | TGI [57]
